Laboratory results as given in ChEMBL document CHEMBL3885881, “DrugMatrix”.

Organism: Rattus norvegicus
Test: DrugMatrix - Regimen: Daily Repeat
Type: toxicity, organism-based, Sprague-Dawley
Design: regimen Daily Repeat, gender Male, age 6-8 weeks
Details: in vivo, sc, route subcutaneous, […]; for ABSOLUTE BASOPHIL / ABSOLUTE EOSINOPHIL / ABSOLUTE LYMPHOCYTE / ABSOLUTE MONOCYTE / ABSOLUTE SEGMENTED NEUTROPHIL / BASOPHIL / EOSINOPHIL / ERYTHROCYTE COUNT / HEMATOCRIT / HEMOGLOBIN / LEUKOCYTE COUNT / LYMPHOCYTE / MEAN CORPUSCULAR HEMOGLOBIN / MEAN CORPUSCULAR HEMOGLOBIN CONCENTRATION / MEAN CORPUSCULAR VOLUME / MONOCYTE / NEUTROPHIL / NUCLEATED RED BLOOD CELLS / PLATELET COUNT: tissue Blood; for ALANINE AMINOTRANSFERASE / ALBUMIN / ALKALINE PHOSPHATASE / ASPARTATE AMINOTRANSFERASE / BLOOD UREA NITROGEN / CARBON DIOXIDE / CHLORIDE / CHOLESTEROL / CREATINE PHOSPHOKINASE / CREATININE / GLUCOSE / LACTATE DEHYDROGENASE / LIPASE / PHOSPHORUS / POTASSIUM / SODIUM / TOTAL BILIRUBIN / TOTAL PROTEIN / URIC ACID: tissue Plasma
[1] = 0 mg/kg, 72 h, dose level Control, time 3 day
[2] = 0 mg/kg, 120 h, dose level Control, time 5 day
[3] = 14 mg/kg, 72 h, dose level Low, time 3 day

CCN(CC)CCOCCC1=CCC2CC1C2(C)C (centres undefined) [MYRTECAINE]
ABSOLUTE BASOPHIL [1]: 0 CELLS/uL
ABSOLUTE EOSINOPHIL [1]: 0 CELLS/uL
ABSOLUTE LYMPHOCYTE [1]: 10887 CELLS/uL
ABSOLUTE MONOCYTE [1]: 56 CELLS/uL
ABSOLUTE SEGMENTED NEUTROPHIL [1]: 1057 CELLS/uL
BASOPHIL [1]: 0%
EOSINOPHIL [1]: 0%
ERYTHROCYTE COUNT [1]: 5.31 x10E6/uL
HEMATOCRIT [1]: 33.78%
HEMOGLOBIN [1]: 13.4 G/DL
LEUKOCYTE COUNT [1]: 12 x10E3/uL
LYMPHOCYTE [1]: 91.17%
MEAN CORPUSCULAR HEMOGLOBIN [1]: 25.25 pg
MEAN CORPUSCULAR HEMOGLOBIN CONCENTRATION [1]: 39.65 G/DL
MEAN CORPUSCULAR VOLUME [1]: 63.65 fL
MONOCYTE [1]: 0.5%
NEUTROPHIL [1]: 8.33%
NUCLEATED RED BLOOD CELLS [1]: 0 /100WBC
PLATELET COUNT [1]: 1142 x10E3/uL
ALANINE AMINOTRANSFERASE [1]: 57.17 u/L
ALBUMIN [1]: 4.28 G/DL
ALKALINE PHOSPHATASE [1]: 425.83 u/L
ASPARTATE AMINOTRANSFERASE [1]: 93.83 u/L
BLOOD UREA NITROGEN [1]: 14.17 mg/dL
CARBON DIOXIDE [1]: 33.5 mmol/L
CHLORIDE [1]: 100 MEQ/L
CHOLESTEROL [1]: 70.33 mg/dL
CREATINE PHOSPHOKINASE [1]: 438.67 u/L
CREATININE [1]: 0.19 mg/dL
GLUCOSE [1]: 138.5 mg/dL
LACTATE DEHYDROGENASE [1]: 190.17 u/L
LIPASE [1]: 9.83 u/L
PHOSPHORUS [1]: 11.05 mg/dL
POTASSIUM [1]: 6.59 MEQ/L
SODIUM [1]: 143.58 MEQ/L
TOTAL BILIRUBIN [1]: 0.22 mg/dL
TOTAL PROTEIN [1]: 6.15 G/DL
URIC ACID [1]: 1.3 mg/dL
ABSOLUTE BASOPHIL [2]: 0 CELLS/uL
ABSOLUTE EOSINOPHIL [2]: 91.17 CELLS/uL
ABSOLUTE LYMPHOCYTE [2]: 11847.67 CELLS/uL
ABSOLUTE MONOCYTE [2]: 172.83 CELLS/uL
ABSOLUTE SEGMENTED NEUTROPHIL [2]: 1105 CELLS/uL
BASOPHIL [2]: 0%
EOSINOPHIL [2]: 0.67%
ERYTHROCYTE COUNT [2]: 5.35 x10E6/uL
HEMATOCRIT [2]: 33.65%
HEMOGLOBIN [2]: 13.42 G/DL
LEUKOCYTE COUNT [2]: 13.22 x10E3/uL
LYMPHOCYTE [2]: 89.83%
MEAN CORPUSCULAR HEMOGLOBIN [2]: 25.12 pg
MEAN CORPUSCULAR HEMOGLOBIN CONCENTRATION [2]: 39.9 G/DL
MEAN CORPUSCULAR VOLUME [2]: 63 fL
MONOCYTE [2]: 1.33%
NEUTROPHIL [2]: 8.17%
NUCLEATED RED BLOOD CELLS [2]: 0 /100WBC
PLATELET COUNT [2]: 1347.83 x10E3/uL
ALANINE AMINOTRANSFERASE [2]: 50 u/L
ALBUMIN [2]: 4.1 G/DL
ALKALINE PHOSPHATASE [2]: 329.17 u/L
ASPARTATE AMINOTRANSFERASE [2]: 77.17 u/L
BLOOD UREA NITROGEN [2]: 16.83 mg/dL
CARBON DIOXIDE [2]: 34.83 mmol/L
CHLORIDE [2]: 99.83 MEQ/L
CHOLESTEROL [2]: 75.67 mg/dL
CREATINE PHOSPHOKINASE [2]: 295.83 u/L
CREATININE [2]: 0.18 mg/dL
GLUCOSE [2]: 156.33 mg/dL
LACTATE DEHYDROGENASE [2]: 166.83 u/L
LIPASE [2]: 9.83 u/L
PHOSPHORUS [2]: 12.18 mg/dL
POTASSIUM [2]: 6.69 MEQ/L
SODIUM [2]: 143.97 MEQ/L
TOTAL BILIRUBIN [2]: 0.22 mg/dL
TOTAL PROTEIN [2]: 6.05 G/DL
URIC ACID [2]: 1.6 mg/dL
ABSOLUTE BASOPHIL [3]: 0 CELLS/uL
ABSOLUTE EOSINOPHIL [3]: 0 CELLS/uL
ABSOLUTE LYMPHOCYTE [3]: 10822.33 CELLS/uL
ABSOLUTE MONOCYTE [3]: 0 CELLS/uL
ABSOLUTE SEGMENTED NEUTROPHIL [3]: 1344.33 CELLS/uL
BASOPHIL [3]: 0%
EOSINOPHIL [3]: 0%
ERYTHROCYTE COUNT [3]: 5.32 x10E6/uL
HEMATOCRIT [3]: 33.73%
HEMOGLOBIN [3]: 13.37 G/DL
LEUKOCYTE COUNT [3]: 12.17 x10E3/uL
LYMPHOCYTE [3]: 89%
MEAN CORPUSCULAR HEMOGLOBIN [3]: 25.13 pg
MEAN CORPUSCULAR HEMOGLOBIN CONCENTRATION [3]: 39.6 G/DL
MEAN CORPUSCULAR VOLUME [3]: 63.4 fL
MONOCYTE [3]: 0%
NEUTROPHIL [3]: 11%
NUCLEATED RED BLOOD CELLS [3]: 0 /100WBC
PLATELET COUNT [3]: 1197.33 x10E3/uL
ALANINE AMINOTRANSFERASE [3]: 47.67 u/L
ALBUMIN [3]: 4.13 G/DL
ALKALINE PHOSPHATASE [3]: 420 u/L
ASPARTATE AMINOTRANSFERASE [3]: 80.67 u/L
BLOOD UREA NITROGEN [3]: 13.67 mg/dL
CARBON DIOXIDE [3]: 25.67 mmol/L
CHLORIDE [3]: 103.67 MEQ/L
CHOLESTEROL [3]: 75.67 mg/dL
CREATINE PHOSPHOKINASE [3]: 200.33 u/L
CREATININE [3]: 0.16 mg/dL
GLUCOSE [3]: 152.33 mg/dL
LACTATE DEHYDROGENASE [3]: 214.67 u/L
LIPASE [3]: 9 u/L
PHOSPHORUS [3]: 14.03 mg/dL
POTASSIUM [3]: 6.82 MEQ/L
SODIUM [3]: 146.53 MEQ/L
TOTAL BILIRUBIN [3]: 0.17 mg/dL
TOTAL PROTEIN [3]: 5.97 G/DL
URIC ACID [3]: 1.5 mg/dL
